According to a melting point compilation (Tetko et al.; mined from patent text by program, amines drawn as free bases though some values may be those of a salt):

Row | melting point [°C] | SMILES
1 | 140 to 141 | O[C@@H]1c2ccccc2C=C[C@H]1N1CCCC1 (relative stereo)
2 | 137 | CSCCC(=N)Nc1cn(-c2cccnc2)nc1Cl
3 | 167 to 170 | CCOC(=O)c1[nH]c2cc(Cl)cc(Cl)c2c1C(=O)OCC
4 | 142 to 143 | Cc1cccc(C)c1CNc1cc(C(=O)N(C)C)cc2c1nc(C)n2C
5 | 148 to 150 | Cc1ccc(CCOc2ccc(NC(=O)N(C)C)cc2)nc1
6 | 277 to 279 | CCCOc1ccc(C(=O)O)cc1-c1ccc(C#N)c(=O)[nH]1
7 | 202 to 203 | CC(=O)N(C)c1c(C(=O)c2cccc(Cl)c2)[nH]c2cc(Cl)ccc12
8 | 82 to 85 | CC(C)c1csc(/C=C/c2cc(N)ccc2Cl)n1
9 | 160 to 162 | Clc1ccc(-c2nnc(Br)cc2Br)cc1
10 | 59 to 61 | CCCC(=O)OC[C@H]1O[C@@H](n2ccc(OCC)nc2=O)CS1 (relative stereo)
11 | 102 to 103 | OCc1c(Cl)nc(C2CCCC2)n1Cc1ccccc1
12 | 114 to 118 | COC(=O)c1cc(N)nn1C
13 | 183 to 185 | CCc1nnc2ccc(-c3cccc(C(F)(F)F)c3)nn12
14 | 178 | Nc1cc(OCc2ccccc2)ccc1NC(=O)c1ccc(C23CC4CC(CC(C4)C2)C3)c(OCc2ccccc2)c1
15 | 71 to 73 | COP(=O)(OC)C(O)=Cc1ccccc1F
16 | 222 to 223 | Cc1c(C#N)cnc(N)c1C#N
17 | 221 to 222 | CC1(C)OC(=S)Nc2ccc(Br)cc21
18 | 130 to 132 | CCCC(C)(C)NC(=O)NC1=CC(=O)OC1
19 | 115 to 116 | Oc1nn(-c2ccccn2)c(-c2ccccc2)c1Cc1ccccc1
20 | 87 to 88 | CC=CCN1c2cc(Cl)ccc2NC(=O)[C@@H]1C
21 | 81 to 82 | Cc1cc(Cl)ccc1Cn1nc(OC(C)C)cc1CCCOc1nn(Cc2ccccc2)cc1CC(=O)O
22 | 247 to 248 | N#Cc1c(N2CCCN(c3cccc(C(F)(F)F)c3)CC2)cc[nH]c1=S
23 | 95 to 96 | Cc1nc(C(C)C)c(Sc2cc(Cl)cc(Cl)c2)n1C
24 | 225 to 227 | COc1ccc(-c2cnc3cc4cn(Cc5ccccc5)nc4cc3n2)cc1F

Row | melting point [°C] | SMILES
25 | 124 to 125 | CCOc1cccc(C2NC(C(=O)O)CS2)c1OCCO[N+](=O)[O-] (configuration not stated)
26 | 170 to 172 | CN(C)S(=O)(=O)N1CCN(S(=O)(=O)c2ccc(-c3ccc(CC#N)cc3)s2)[C@@H](C(=O)NO)C1
27 | 90 to 92 | N#Cc1c(F)ccc(F)c1N
28 | 72 to 73 | COc1ccc(C(=O)C(=O)NC(C)C)s1
29 | 84 to 86 | Cc1cc2c(cc1C=O)OCO2
30 | 248 | COc1cc(CN2C(=O)CN(C)C2=O)cc(OC)c1-c1ccc(C[C@H](NC(=O)c2c(Cl)cccc2Cl)C(=O)O)cc1
31 | 233 to 235 | CC(=O)NC1CCc2c(C(=O)O)[nH]c(C(=O)O)c2C1 (configuration not stated)
32 | 243 | Cc1cccc(C2=C(c3cn(C)c4ccccc34)C(=O)NC2=O)c1
33 | 210 to 214 | NC1(C2CCN(c3c(F)cc4c(=O)[nH]c(=O)n(C5CC5)c4c3OC(F)F)C2)CC1 (configuration not stated)
34 | 115 to 116 | COC(=O)c1ccc2occ(-c3ccc(SC)c(Cl)c3)c2c1
35 | 200 to 201 | CCn1nc(-c2ccccc2)c(C(C)=O)c(Nc2ccc([N+](=O)[O-])cn2)c1=O
36 | 258 to 260 | Cc1nn(C)c(-c2ccccc2)c1NC(N)=S
37 | 126 to 130 | CC(CO)(c1ccc(Cl)cc1)N1CCN(c2ccc(CO)c(Cl)c2)CC1 (configuration not stated)
38 | > 240 | Oc1ncnc2cnc(NC3CC3)nc12
39 | 162 to 163 | Cc1ccc(S(=O)(=O)n2cc(/C=C/C(=O)N(C)C)nc2C)cc1
40 | 312 to 314 | CC(=O)c1nc(C)cn1-c1cc(C)c2[nH]c(=O)ccc2c1
41 | 118 to 120 | O=C1CCCN1c1cccc2cccnc12
42 | 72.3 to 74.6 | CCCN(CCC)c1c(CC)nn2c(-c3c(C)cc(C)cc3OC)cccc12
43 | 105 to 108 | O=C1Cc2c(Cl)cccc2Sc2ccc(C(F)(F)F)cc21
44 | 44 to 47 | CCOCNC(=O)c1cc(OC)cc(Oc2cccc(C(F)(F)F)c2)n1
45 | 135 | CC(C#N)(Cn1nnc2cc(Cl)ccc21)NC(=O)c1ccc(OC(F)(F)F)cc1 (configuration not stated)
46 | 264 to 265 | CC(=NO)c1ccc(Nc2c3ccccc3nc3occc23)cc1
47 | 184 to 185 | Nc1c(-c2ccc(C(F)(F)F)cc2F)nnn1-c1ccc(S(N)(=O)=O)cc1
48 | 128 to 131 | CN1CCNS(=O)(=O)c2cc(Oc3ccccc3)ccc21

Row | melting point [°C] | SMILES
49 | 273 to 274 | Nc1nc(-c2cccnc2Cl)c(-c2cccnc2Cl)s1
50 | 56 | COc1cc(N)c([N+](=O)[O-])cc1C(F)(F)F
51 | 92 | FC(F)(F)c1cccc(Oc2ccnc(-c3ccc(Cl)cc3)n2)c1
52 | 96 to 102 | OCCCc1ccc(Sc2ccc(CCCO)cc2C(F)(F)F)c(C(F)(F)F)c1
53 | 152 to 154 | O=c1oc(-c2ccc(OCc3ccc4ccccc4c3)cc2)cc(O)c1SCCc1ccccc1
54 | 118 to 119 | CC(=O)OC(CF)c1ccccc1S(=O)(=O)NC(C)(C)C (configuration not stated)
55 | 91 to 95 | ClCc1ccc(OCCC(c2ccccc2)(c2ccccc2)c2ccccc2)cc1
56 | 169 to 172 | COCC(c1ccccc1)N(C)Cc1c(-c2ccc(NC(=O)NOC)cc2)sc2c1c(=O)n(-c1ccccc1)c(=O)n2Cc1c(F)cccc1F (configuration not stated)
57 | 130 to 132 | CCOC(=O)c1cc(=O)c2cc(C(C)(C)C)cc(C(C)(C)C)c2o1
58 | 207 to 208 | Cc1c(NC(=O)c2ccc(OCC3CC3)cc2)ccc2[nH]c(CNC3CCCC3)cc12
59 | 129 to 132 | COc1ccc(N2CCN(c3c(C)c(C)c4c(c3C)CC(C)(CN3CCCC3)O4)CC2)cc1 (configuration not stated)
60 | 228 to 235 | O=c1c(CCl)c[nH]c2c([N+](=O)[O-])cccc12
61 | 107 to 108 | NS(=O)(=O)c1cccc(C=NO)c1
62 | 147 to 149 | COC(=O)C(C(=O)OC)c1ccc(C(=O)O)cc1[N+](=O)[O-]
63 | 260 to 262 | Cc1cc(-c2nnc3c4ccccc4c(OCc4nc[nH]n4)nn23)no1
64 | 124 to 126 | COC(=O)c1cc(S(N)(=O)=O)ccc1S(=O)(=O)CCCO
65 | 170 to 172 | Cc1cc(C)cc(OCC(O)CNc2nc(-c3ccccc3)nc3ccccc23)c1 (configuration not stated)
66 | 163 to 164 | O[C@H]1c2cc(OCc3ccc4cc(F)ccc4n3)ccc2OC[C@H]1Oc1cccnc1
67 | 110 to 112 | N#Cc1ccc(CCC(O)c2ccc(C#N)cc2)cc1 (configuration not stated)
68 | 112 to 113 | O=C(NCO)c1cccc(Oc2ccccc2)c1
69 | 55 | CCCCc1oc2ccc([N+](=O)[O-])cc2c1C(=O)c1ccc(OCCCCCBr)cc1
70 | 125 | CSc1ccc(NC(=O)N(C)O)cc1C(F)(F)F
71 | 311 to 312 | COc1ccc2nc(-c3c[nH]c4ccccc34)[nH]c(=O)c2c1
72 | 158 to 160 | COC(=O)n1nc(C(=O)NC2CN(C)CCN(Cc3ccccc3)C2)c2ccccc21 (configuration not stated)

Row | melting point [°C] | SMILES
73 | 170 to 172 | COCCOCc1nc2c(N)nc3ccccc3c2n1CCOc1ccccc1
74 | 71 to 72 | COC(=O)c1cc(OC)c(N(C)C)c(OC)c1
75 | 197 to 198 | CC(C)(C)c1cc(CCc2ccccc2NC(=O)NC2CCN(Cc3ccc(C#N)cc3)CC2)cc(C(C)(C)C)c1O
76 | 160 to 161 | O=C(O)CCCc1ccc(-c2ccc([N+](=O)[O-])cc2)cc1
77 | 176 to 177 | COc1ccc(C(=O)Cc2ccccc2)c([N+](=O)[O-])c1O
78 | 107 to 110 | Clc1nc(SCc2cccc3ccccc23)nc2c1CCN2
79 | 169 to 171 | CCCn1c(=O)c2c(NC)n(C(C)=O)nc2n(Cc2cccc(Cl)c2)c1=O
80 | 197 to 198 | CC(C)N1CCC2(CC1)CSC1=C(O2)c2ccccc2C(=O)C1=O
81 | 180 to 181 | CS(=O)(=O)c1ccc(-c2ccccc2-c2ccc(F)c(Cl)c2)cc1
82 | 117 to 118 | CC(=O)OCc1nc(C(Cl)Cl)cnc1N1C(=O)c2ccccc2C1=O
83 | 196 to 200 | CC12CCC(=O)C=C1CCC1C3CC(OCCOC4CCCCO4)C(O)(C(=O)CO)C3(C)CC(O)C12F (configuration not stated)
84 | 116 to 117 | CN1CC(CCN2CCN(c3ccc(C(F)(F)F)cc3)CC2)OC1=O (configuration not stated)
85 | 75 to 76 | CON=C(OCC(=O)OC)C(Cl)=Cc1cc(-n2ncc(C(F)(F)F)c(C)c2=O)c(F)cc1Cl
86 | 165 to 166 | COc1ccc(-c2cc(C=O)[nH]c2-c2ccc(OC)cc2)cc1
87 | 245 to 246 | CN(C)c1ccc(NC(=O)Cn2c(-c3ccc(Cl)cc3)nc3cccnc32)cc1
88 | 95 | Cc1cc(Oc2cccc(C#N)n2)n(C)n1
89 | 33 to 35 | CCCCCC[C@H](F)CO
90 | 130 to 132 | Cn1cc(C2=C(c3cn(CCCSc4ncc[nH]4)c4ccccc34)C(=O)NC2=O)c2ccccc21
91 | 90 | CCCCN(CCCC)c1cc(OC)c(C=Cc2cccs2)c(OC)c1
92 | 178 to 179 | CCOC(=O)/C=C(C)/C=C/C=C(\C)C1=Cc2cc(C34CC5CC(CC(C5)C3)C4)ccc2OC1
93 | 99 to 100 | CC(C)=CCN1CCOC(CN2c3ccccc3C=Cc3ccccc32)C1 (configuration not stated)
94 | 191 to 193 | OCC1Cc2c([nH]c3ccccc23)CN1 (configuration not stated)

Row | SMILES | melting point [°C]
95 | CN1C(=O)[C@H](NC(=O)/C=C/c2ccc(C(F)(F)F)cc2)N=C(c2ccccc2)c2ccccc21 | 133 to 137
96 | CCN1CCC(c2ccccc2)=C(C(=O)NC)C1 | 103 to 105
97 | CN(C)c1c(SC(F)(F)F)c(C#N)nn1-c1c(Cl)cc(C(F)(F)F)cc1Cl | 110 to 111
98 | Cc1ccc(-c2cc(C(=O)O)nn2Cc2ccc(F)cc2)cc1C | 141
99 | CCC(=O)c1ncn2c1CN(C)C(=O)c1ccccc1-2 | 215 to 216
100 | O=C1CSC2CN=C(c3ccccc3)c3cc(Cl)ccc3N12 (configuration not stated) | 228 to 230
101 | COc1ccc2c(c1)C(c1ccc(Cl)cc1)=NC(CC(=O)NC1CCCCC1)c1nnc(C)n1-2 (configuration not stated) | > 260
102 | COc1ccccc1C1=CCN(C[C@@H](CC2CCCCC2)NC(=O)C2(C)CCCCC2)CC1 | 93 to 95
